Holding throughout (assay type): biochemical
One test has as its target T1, p110β-PI3K (Homo sapiens, UniProt P42338).
T1 construct: The α and β isoforms of the PI3K were immunoprecipitated from a platelet lysate; from tissue; host or cells: washed platelets (lysate, immunoprecipitated with anti-p110β antibody)
Briefly: In vitro enzyme assay, p110β immunoprecipitated from platelet lysate (Biological Example 1). Conditions: Table I; for IC50: read-out: inhibitory concentration, beta. As for the experimental part: For each immunoprecipitation, 1 mg of lysate was incubated with an anti-p110α (1 μg), anti-p110β (1 μg), anti-p110δ (1 μg) or anti-PI4 kinase antibody (2-5 μg) and 50 μl of a 50% slurry of protein A beads overnight at 4° C. […] For PI4 kinase assays, protein A beads-immune complexes were also washed twice with lysis buffer, prior to two washes with 1× PI4 kinase assay buffer (20 mM Hepes, pH 7.5, 10 mM MgCl2, 0.3% Triton X-100) and the addition of other assay constituents, as described above. All reactions were terminated by the addition of 100 μl 1 M HCl, 200 μl choloroform/methanol (1:1) and 500 μl 2 M KCl and lipids extracted by centrifugation at 15,000×g for 2 minutes. […] The lipid spots were then removed from the TLC plate and the level of radioactivity quantified to accurately determine the level of PtdIns(3)P/PtdIns(4)P production.

In another test the target is T2, p110α-PI3K (Homo sapiens, UniProt P42336).
T2 construct: The α and β isoforms of the PI3K were immunoprecipitated from a platelet lysate; from tissue; host or cells: washed platelets (lysate, immunoprecipitated with anti-p110α antibody)
Briefly: In vitro enzyme assay, p110α immunoprecipitated from platelet lysate (Biological Example 1). The note with it: Table I; read-out: inhibitory concentration, alpha. As for the experimental part: (§1) For each immunoprecipitation, 1 mg of lysate was incubated with an anti-p110α (1 μg), anti-p110β (1 μg), anti-p110δ (1 μg) or anti-PI4 kinase antibody (2-5 μg) and 50 μl of a 50% slurry of protein A beads overnight at 4° C. […] For PI4 kinase assays, protein A beads-immune complexes were also washed twice with lysis buffer, prior to two washes with 1× PI4 kinase assay buffer (20 mM Hepes, pH 7.5, 10 mM MgCl2, 0.3% Triton X-100) and the addition of other assay constituents, as described above. All reactions were terminated by the addition of 100 μl 1 M HCl, 200 μl choloroform/methanol (1:1) and 500 μl 2 M KCl and lipids extracted by centrifugation at 15,000×g for 2 minutes. The production of PI3 or PI4 kinase lipid products, PtdIns(3)P and PtdIns(4)P, were confirmed through TLC analysis. The lipid spots were then removed from the TLC plate and the level of radioactivity quantified to accurately determine the level of PtdIns(3)P/PtdIns(4)P production.

In another test the target is p110γ-PI3K (Homo sapiens, UniProt P48736). Nature of the test: In vitro enzyme assay, p110γ recombinant protein (Biological Example 1). The note with it: Table I; read-out: inhibitory concentration, gamma. The text has this: Reactions were terminated and lipid products analysed as described above for the other PI 3-kinase isoforms assays.
The target of the next test is T3, p110δ-PI3K (Homo sapiens, UniProt O00329).
T3 construct: from tissue; host or cells: washed platelets (lysate, immunoprecipitated with anti-p110δ antibody)
Briefly: In vitro enzyme assay, p110δ immunoprecipitated from platelet lysate (Biological Example 1). Conditions: Table I; read-out: inhibitory concentration, delta. On the procedure:
as §1

The next test concerns the target T4, P110 γ (Homo sapiens, UniProt P48736).
T4 construct: made in house
Nature of the test: Isoform selective in vitro PI3K enzyme assay (Example 13), γ recombinant. The note with it: read-out: P110 γ IC50s. As for the experimental part:
In vitro enzyme assays were conducted as a primary screen to determine drug candidate isoform affinity and specificity. The α and β isoforms of the PI3K were immunoprecipitated from a platelet lysate, using an antibodies obtained from Santa Cruz Biotechnology, that recognized specific regions of p110α (sc-7174) and β (sc-603) isoforms. The γ isoform was produced as a recombinant protein in the Kinacia laboratories. […] Standard phosphorylation assays using phosphatidylinositol and ^32P were used to measure the enzyme activity in the immunoprecipates in the presence or absence of an inhibitor. Enzyme activity was determined over a range of inhibitor concentrations to establish an IC50 value.

In test [1] the test system is PI 3-kinase immunoprecipitated from human platelets (p85/110 form). Briefly: In vitro PI 3-kinase assay (Example 8), Platelet IP (p85). Conditions: read-out: Platelet IP (p85) IC50s. On the procedure: The effect of pyridine-substituted compounds on PI 3-kinase activity was determined using an in vitro PI 3-kinase assay. This assay was performed using PI 3-kinase immunoprecipitated from human platelets as the enzyme and PI as the substrate. The PI 3-kinase activity was quantitated by measuring the enzymatic incorporation of [^32P] into PI, forming PI([^32P]-3)P, as previously described (Susa et al., 1992, The Journal of Biological Chemistry 267(32):22951-22956.
Washed human platelets were lysed in Triton X-100 lysis buffer (10 mM Tris, pH 7.4, 1% Triton X-100, 2 mM EDTA, 1 mM PMSF) for 30 minutes. The Triton X-100 insoluble fraction was removed by centrifugation of the cell lysates at 15,000 g for 10 minutes. PI 3-kinase was immunoprecipitated by mixing 500 μg of the cell lysate with 1 μg of a rabbit anti-rat antibody against the p85/110 form of PI 3-kinase and 30 μl of 50% Protein A-sepharose beads for 2 hours at 4° C. The Protein A-sepharose-bound PI 3-kinase was isolated by pelleting the beads at 15,000 g for 5 seconds, and washing three times with ice-cold Triton X-100 lysis buffer followed by four washes with PI 3-kinase assay buffer (20 mM HEPES, pH 7.4, 1 mM EGTA, 5 mM MgCl2).
PI stored in CHCl3 was dried under N2, resuspended in the lipid buffer (50 mM HEPES, pH 7.2, 1 mM EDTA) at a final concentration of 330 μg/ml, and sonicated for 6 minutes on ice. PI([^32P]-3)P was generated by mixing the immunoprecipitated PI 3-kinase for 20 minutes with 40 μl of the PI, 10 μl of ATP (1 mM) and ^32P-r-ATP (0.5 μCi, 1 μCi/nmol), 10 μl of 10× kinase buffer, in a final assay volume of 100 μl adjusted with H2O. TGX-was preincubated with the PI 3-kinase for 5 minutes prior to the addition of ATP. The assay was terminated with 100 μl of 1 N HCl, and the PI([^32P]-3)P product extracted with 200 μl chloroform:methanol (1:1) and 500 μl 2 M KCl. The PI([^32P]-3)P in the chloroform phase was resolved by thin layer chromatography using a solvent system containing CHCl3:MeOH:HAC:H2O (43:38:5:7) (v:v:v:v), and visualized by autoradiography. The PI([^32P]-3)P spots were then scraped off from the TLC plates, deacylated with 1 ml methylamine:butanol:methanol (42:9:47) (v:v:v) for 4 hours at 53° C., and quantitated using a liquid scintillation counter (LKB 1209 RackBETA).

A further test has as its target T5, P110 δ (Homo sapiens, UniProt O00329).
T5 construct: The δ isoform was immunoprecipitated from THP-1 cells; endogenous in cells; host or cells: THP-1 cells (immunoprecipitated with antibody sc-7176)
Nature of the test: Isoform selective in vitro PI3K enzyme assay (Example 13), δ from THP-1 cells. Conditions: read-out: P110 δ IC50s. On the procedure:
In vitro enzyme assays were conducted as a primary screen to determine drug candidate isoform affinity and specificity. […] The γ isoform was produced as a recombinant protein in the Kinacia laboratories. […] Standard phosphorylation assays using phosphatidylinositol and ^32P were used to measure the enzyme activity in the immunoprecipates in the presence or absence of an inhibitor. Enzyme activity was determined over a range of inhibitor concentrations to establish an IC50 value.

T1 sequence (P42338 whole entry, canonical isoform): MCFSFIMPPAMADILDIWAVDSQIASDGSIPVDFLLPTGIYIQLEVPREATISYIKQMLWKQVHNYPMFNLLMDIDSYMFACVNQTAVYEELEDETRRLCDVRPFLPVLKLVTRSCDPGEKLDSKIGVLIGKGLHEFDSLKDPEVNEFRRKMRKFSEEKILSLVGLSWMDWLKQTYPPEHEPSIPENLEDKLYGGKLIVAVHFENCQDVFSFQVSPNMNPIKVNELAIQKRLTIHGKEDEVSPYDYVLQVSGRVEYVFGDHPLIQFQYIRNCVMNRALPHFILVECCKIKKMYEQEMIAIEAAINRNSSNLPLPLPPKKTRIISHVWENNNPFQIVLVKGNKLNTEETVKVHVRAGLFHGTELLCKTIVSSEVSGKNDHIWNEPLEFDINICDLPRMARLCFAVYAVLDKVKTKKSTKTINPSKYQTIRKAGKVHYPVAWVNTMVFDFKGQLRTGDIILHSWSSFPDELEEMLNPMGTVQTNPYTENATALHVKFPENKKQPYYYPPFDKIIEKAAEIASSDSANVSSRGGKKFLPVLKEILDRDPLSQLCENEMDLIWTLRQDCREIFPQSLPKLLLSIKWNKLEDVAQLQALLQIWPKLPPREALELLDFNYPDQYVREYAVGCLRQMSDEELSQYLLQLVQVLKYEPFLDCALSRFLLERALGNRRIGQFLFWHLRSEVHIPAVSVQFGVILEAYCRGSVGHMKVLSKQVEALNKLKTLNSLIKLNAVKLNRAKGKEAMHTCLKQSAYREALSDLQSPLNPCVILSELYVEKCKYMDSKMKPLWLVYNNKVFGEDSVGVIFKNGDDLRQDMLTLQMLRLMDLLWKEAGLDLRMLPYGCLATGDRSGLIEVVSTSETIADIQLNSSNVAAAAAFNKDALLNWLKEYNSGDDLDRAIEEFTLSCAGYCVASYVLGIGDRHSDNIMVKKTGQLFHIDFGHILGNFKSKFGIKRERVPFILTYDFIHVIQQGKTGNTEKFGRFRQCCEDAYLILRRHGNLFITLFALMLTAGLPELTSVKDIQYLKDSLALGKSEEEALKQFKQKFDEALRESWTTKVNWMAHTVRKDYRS
T1 sequence (P27986 whole entry partner, canonical isoform): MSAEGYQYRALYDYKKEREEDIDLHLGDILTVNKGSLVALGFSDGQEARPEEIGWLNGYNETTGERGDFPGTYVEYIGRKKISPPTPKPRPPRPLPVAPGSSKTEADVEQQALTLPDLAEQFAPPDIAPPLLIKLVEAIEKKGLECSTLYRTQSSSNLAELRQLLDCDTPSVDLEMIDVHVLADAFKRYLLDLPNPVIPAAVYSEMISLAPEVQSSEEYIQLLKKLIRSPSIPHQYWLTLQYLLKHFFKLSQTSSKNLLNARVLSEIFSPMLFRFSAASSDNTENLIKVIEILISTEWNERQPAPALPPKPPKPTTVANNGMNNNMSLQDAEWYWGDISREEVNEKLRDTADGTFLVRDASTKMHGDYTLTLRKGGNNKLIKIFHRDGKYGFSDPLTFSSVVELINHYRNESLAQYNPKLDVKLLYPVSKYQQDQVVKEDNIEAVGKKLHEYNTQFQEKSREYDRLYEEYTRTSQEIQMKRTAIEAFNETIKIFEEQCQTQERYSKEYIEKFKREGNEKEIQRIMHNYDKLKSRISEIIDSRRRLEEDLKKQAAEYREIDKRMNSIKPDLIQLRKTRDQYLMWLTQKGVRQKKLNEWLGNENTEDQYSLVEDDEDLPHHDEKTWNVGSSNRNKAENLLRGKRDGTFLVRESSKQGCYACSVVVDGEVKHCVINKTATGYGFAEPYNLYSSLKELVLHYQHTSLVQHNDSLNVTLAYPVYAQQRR
T2 sequence (P42336 whole entry, canonical isoform): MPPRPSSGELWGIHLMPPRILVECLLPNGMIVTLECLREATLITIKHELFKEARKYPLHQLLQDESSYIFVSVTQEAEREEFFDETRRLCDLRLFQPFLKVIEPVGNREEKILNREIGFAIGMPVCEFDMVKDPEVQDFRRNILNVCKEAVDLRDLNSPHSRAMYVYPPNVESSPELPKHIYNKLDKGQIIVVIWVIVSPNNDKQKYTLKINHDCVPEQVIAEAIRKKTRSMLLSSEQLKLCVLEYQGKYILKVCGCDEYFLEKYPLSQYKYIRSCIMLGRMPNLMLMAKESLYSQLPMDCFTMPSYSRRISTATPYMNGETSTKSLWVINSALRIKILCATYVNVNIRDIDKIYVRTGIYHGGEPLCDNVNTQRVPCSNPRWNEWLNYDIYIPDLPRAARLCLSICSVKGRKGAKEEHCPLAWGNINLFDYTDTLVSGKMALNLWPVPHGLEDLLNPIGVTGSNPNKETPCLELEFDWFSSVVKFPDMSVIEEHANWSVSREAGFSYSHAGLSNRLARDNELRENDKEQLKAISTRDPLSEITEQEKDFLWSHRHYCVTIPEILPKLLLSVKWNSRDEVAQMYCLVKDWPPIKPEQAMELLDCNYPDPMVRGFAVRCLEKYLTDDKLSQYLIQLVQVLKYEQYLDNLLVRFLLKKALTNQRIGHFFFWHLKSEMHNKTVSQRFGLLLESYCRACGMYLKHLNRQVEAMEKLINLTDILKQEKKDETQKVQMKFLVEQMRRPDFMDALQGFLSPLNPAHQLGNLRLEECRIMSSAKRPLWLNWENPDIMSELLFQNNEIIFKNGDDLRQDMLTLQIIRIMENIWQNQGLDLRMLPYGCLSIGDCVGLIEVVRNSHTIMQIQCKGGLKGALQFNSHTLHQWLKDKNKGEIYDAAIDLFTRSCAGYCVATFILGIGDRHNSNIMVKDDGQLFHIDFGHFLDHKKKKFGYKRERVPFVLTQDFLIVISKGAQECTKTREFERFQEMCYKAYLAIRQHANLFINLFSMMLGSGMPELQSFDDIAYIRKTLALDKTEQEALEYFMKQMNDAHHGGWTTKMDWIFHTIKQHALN
T2 sequence (P27986 whole entry partner, canonical isoform): as the sequence (P27986 whole entry partner, canonical isoform) above
T5 sequence (O00329 whole entry, canonical isoform): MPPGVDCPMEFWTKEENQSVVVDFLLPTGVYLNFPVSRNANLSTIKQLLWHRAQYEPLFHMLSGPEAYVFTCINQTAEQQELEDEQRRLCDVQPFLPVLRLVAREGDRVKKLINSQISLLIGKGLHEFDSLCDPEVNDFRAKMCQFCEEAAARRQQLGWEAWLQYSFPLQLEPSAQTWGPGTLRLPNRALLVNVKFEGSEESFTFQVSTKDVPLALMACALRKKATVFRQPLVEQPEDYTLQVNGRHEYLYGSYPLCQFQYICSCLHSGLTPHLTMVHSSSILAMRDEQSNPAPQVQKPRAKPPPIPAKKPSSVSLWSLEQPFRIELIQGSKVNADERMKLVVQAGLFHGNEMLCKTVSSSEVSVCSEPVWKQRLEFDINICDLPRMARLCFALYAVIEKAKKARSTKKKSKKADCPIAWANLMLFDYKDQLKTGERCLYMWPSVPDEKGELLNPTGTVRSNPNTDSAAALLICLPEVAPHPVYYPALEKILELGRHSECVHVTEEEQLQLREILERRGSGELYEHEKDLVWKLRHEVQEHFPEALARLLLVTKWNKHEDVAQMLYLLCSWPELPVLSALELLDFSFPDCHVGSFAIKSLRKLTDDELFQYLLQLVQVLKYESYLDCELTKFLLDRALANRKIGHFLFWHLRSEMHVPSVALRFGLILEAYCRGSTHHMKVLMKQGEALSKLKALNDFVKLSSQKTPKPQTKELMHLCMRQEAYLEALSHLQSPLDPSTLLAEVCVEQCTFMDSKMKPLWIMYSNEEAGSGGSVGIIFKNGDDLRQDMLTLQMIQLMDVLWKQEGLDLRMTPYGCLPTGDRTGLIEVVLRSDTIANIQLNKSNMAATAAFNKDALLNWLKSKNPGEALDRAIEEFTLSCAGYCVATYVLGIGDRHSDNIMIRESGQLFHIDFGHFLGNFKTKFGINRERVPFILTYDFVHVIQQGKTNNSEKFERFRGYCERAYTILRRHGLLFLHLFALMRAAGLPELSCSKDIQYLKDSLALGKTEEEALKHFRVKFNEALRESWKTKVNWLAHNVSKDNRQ
T5 sequence (P27986 whole entry partner, canonical isoform): as the sequence (P27986 whole entry partner, canonical isoform) above
T3 sequence (O00329 whole entry): as the sequence (O00329 whole entry, canonical isoform) above
T3 sequence (P27986 whole entry partner): as the sequence (P27986 whole entry partner, canonical isoform) above

In the case of `Cc1cc(CN(C)c2ccccc2)c2nc(N3CCOCC3)cc(=O)n2c1` (racemic) [TGX-195, (±)-7-methyl-9-{[methyl(phenyl)amino]methyl}-2-morpholin-4-yl-pyrido[1,2-a]pyrimidin-4-one], the “Ratio δ/β” value at p110β-PI3K amounted to 25.00. Also, the IC50 is 20 nM on p110β-PI3K, > 5000 nM at p110α-PI3K, > 5000 nM at p110γ-PI3K and 500 nM at p110δ-PI3K.

In the case of `Cc1cc(C(C)Nc2cc(F)cc(F)c2)c2nc(N3CCOCC3)cc(=O)n2c1` (racemic) [TGX-239, (±)-9-[1-(3,5-difluorophenylamino)ethyl]-7-methyl-2-morpholin-4-yl-pyrido[1,2-a]pyrimidin-4-one], on p110β-PI3K, the “Ratio δ/β” value was found to be 11.43. In addition, the IC50 at p110β-PI3K was 7 nM; on p110α-PI3K, > 5000 nM; on p110γ-PI3K, > 5000 nM; on p110δ-PI3K, 80 nM.

Take `Cc1cc(C(C)Nc2ccc(Cl)cc2)c2nc(N3CCOCC3)cc(=O)n2c1` (racemic) [TGX-243, (±)-9-[1-(4-chlorophenylamino)ethyl]-7-methyl-2-morpholin-4-yl-pyrido[1,2-a]pyrimidin-4-one]: the “Ratio δ/β” value at p110β-PI3K is on record as 40.00. For the same compound, the IC50 at p110β-PI3K is 50 nM; at p110α-PI3K it was > 5000 nM; at p110γ-PI3K, > 5000 nM; on p110δ-PI3K it was 2000 nM.

`Cc1cc(C(C)Nc2ccc(Cl)c(Cl)c2)c2nc(N3CCOCC3)cc(=O)n2c1` (racemic) [TGX-244, (±)-9-[1-(3,4-dichlorophenylamino)ethyl]-7-methyl-2-morpholin-4-yl-pyrido[1,2-a]pyrimidin-4-one]: the “Ratio δ/β” value on p110β-PI3K is 20.00. The IC50 at p110β-PI3K was 50 nM; on p110α-PI3K it was > 5000 nM; at p110γ-PI3K, > 5000 nM; at p110δ-PI3K, 1000 nM.

Consider `Cc1cc(C(C)Nc2cccc(Cl)c2)c2nc(N3CCOCC3)cc(=O)n2c1` (racemic) [TGX-248, (±)-9-[1-(3-chlorophenylamino)ethyl]-7-methyl-2-morpholin-4-yl-pyrido[1,2-a]pyrimidin-4-one], for which, on p110β-PI3K, the “Ratio δ/β” value was found to be 10.00. For the same compound, the IC50 is 10 nM at p110β-PI3K, > 5000 nM on p110α-PI3K, > 5000 nM at p110γ-PI3K and 100 nM on p110δ-PI3K.

For `Cc1cccc(NC(C)c2cc(C)cn3c(=O)cc(N4CCOCC4)nc23)c1` (racemic) [TGX-262, (±)-7-methyl-9-[1-(3-methylphenylamino)ethyl]-2-morpholin-4-yl-pyrido[1,2-a]pyrimidin-4-one], the “Ratio δ/β” value at p110β-PI3K turned out to be 20.00. The IC50 was 50 nM on p110β-PI3K, > 5000 nM on p110α-PI3K, > 5000 nM on p110γ-PI3K and 1000 nM on p110δ-PI3K.

For the compound `Cc1cc(C(C)Nc2cccc(C)n2)c2oc(-c3ccncc3)cc(=O)c2c1` (stereo not drawn) [KN310, 8-1-(6-methylpyridin-2-ylamino)ethyl-6-methyl-2-(4-pyridinyl)-4H-1-benzopyran-4-one], the figures for the IC50 (on P110 γ; in test [1]; at P110 δ) were 7500 nM, 100 nM and 1000 nM, respectively.

As to `Cc1cc(CNc2ccccn2)c2oc(-c3ccncc3)cc(=O)c2c1` [KN315, 6-methyl-8-(2-pyridinyl)aminomethyl-2-(4-pyridinyl)-4H-benzopyran-1-one], the IC50 on P110 γ was 5000 nM; in test [1], > 100 nM; on P110 δ, 5000 nM.

Consider `O=c1cc(-c2ccncc2)[nH]c2c(Oc3ccccc3)cccc12` [KN319, 8-phenoxy-2-(4-pyridinyl)-4-(1H)-quinolinone], for which the results for the IC50 (at P110 γ; in test [1]; on P110 δ) were 20000 nM, 500 nM and 300 nM, respectively.

As to `O=c1cc(-c2ccncc2)oc2c(NCc3ccccc3)cccc12` [KN336], the IC50 is 10000 nM on P110 γ, 1000 nM in test [1] and 200 nM at P110 δ.

With `Cc1cc(F)ccc1Oc1cccc2c(=O)cc(-c3ccncc3)[nH]c12` [KN337, 8-(4-Fluoro-2-methylphenoxy)-2-(4-pyridinyl)-4(1H)-quinolinone], the IC50 at P110 γ is > 10000 nM; in test [1], 200 nM; on P110 δ, 200 nM.

Regarding `O=c1cc(-c2ccncc2)oc2c(Nc3ccccc3)cccc12` [KN341], the IC50 at P110 γ stood at 5000 nM; in test [1], 500 nM; on P110 δ, 50 nM.

For the compound `O=c1cc(-c2ccncc2)[nH]c2c(Cc3ccccc3)cccc12` [KN346, 8-Benzyl-2-(4-pyridinyl)-4(1H)-quinolinone], the IC50 is > 10000 nM on P110 γ, > 10000 nM in test [1] and 10000 nM at P110 δ.

On to `Cc1cccn2c(=O)cc(-c3ccncc3)nc12` [KN347, 9-methyl-2-(4-pyridinyl)-4H-Pyrido[1,2-a]pyrimidin-4-one], for which the IC50 (on P110 γ; in test [1]; at P110 δ) was > 10000 nM in each case.

For `O=c1cc(-c2ccncc2)nc2c(Cc3ccccc3)cccn12` [KN349, 9-Benzyl-2-(4-pyridinyl)-4H-Pyrido[1,2-a]pyrimidin-4-one], the IC50 was > 10000 nM at P110 γ, 500 nM in test [1] and 2000 nM at P110 δ.

Values taken from patent publication US7598377B2, “Inhibition of phosphoinositide 3-kinase β” (AstraZeneca AB, priority 2002, dated 2009).
